The nature of series [1]: Solubilization of active in 3 wt % polymer solution (high-throughput robot, UV/VIS). Format: physicochemical. The protocol: Solubilization measurements were carried out with a highthroughput screening robot. This setup dosed 10 mg solid active and […] of the respective 3 wt % liquid polymer solution (in Cl-PAC water D) into wells on a micro titer plate. After the addition of stirring bars and 24 hours incubation time the samples were filtrated via polypropylene filters in order to separate dissolved active and its solid formatted. The amount of solubilized active was determined via UV/VIS spectroscopy.

For series [2] the following is noted: at 20° C.; cited from earlier work.

This is an account of results in US20160262394A1, “COMPOSITION COMPRISING AN ACTIVE AND A GRAFT COPOLYMER MADE OF N-VINYLLACTAM, VINYL ESTER, AND AN ALCOHOL ALKOXYLATE” (BASF SE, priority 2013, published 2016).

Values after ≈ are worked out from the molar mass of the structure shown.

For `Cn1cc(C(=O)Nc2ccccc2-c2cc(F)c(F)c(F)c2)c(C(F)F)n1` [fluxapyroxad], in series [1] (Active without polymer), the “Solubility of Xemium ® (fluxapyroxad)” value came out at 10 ppm. For the same compound, the water solubility in series [2] was 4 µg/mL (≈ 10.5 µM).

With `NC(=O)N1c2ccccc2C=Cc2ccccc21` [cabamazepine], in series [1] (Active without polymer), the Solubility of cabamazepine is on record as 181 ppm.

On to `N#Cc1nn(-c2c(Cl)cc(C(F)(F)F)cc2Cl)c(N)c1[S+]([O-])C(F)(F)F` (centres unmarked) [fipronil], for which the Solubility of fipronil in series [1] was determined as 12 ppm.

Regarding `CC(O)(Cn1cncn1)c1ccc(Oc2ccc(Cl)cc2)cc1C(F)(F)F` (centres unmarked) [2-[4-(4-chlorophenoxy)-2-(trifluoromethyl)phenyl]-1-(1H-1,2,4-triazol-1-yl)propan-2-ol], the “Solubility of the triazole fungicide 2-[4-(4-chlorophenoxy)-2-(trifluoromethyl)phenyl]-1-(1H-1,2,4-triazol-1-yl)propan-2-ol” value in series [1] (Active without polymer) is given as 15 ppm.
